# Counter-ions that a name gives are not always drawn. Like-named read-outs stand apart in the source and are kept apart here.
# Legend:
# [1] = system: mice with experimentally induced myopia; experiment: Lens-induced myopia (-25 D lens over right eye, 3 weeks), drug in diet; type: in vivo, C57BL/6J (B6) mice; details: for interocular difference in refractive error between lens-treated eyes and control eyes: after 3 weeks of lens treatment, control group -10.47 ± 3.02 D; for inhibition (suppression) of myopia: systemic oral administration, 3 weeks, -25 D lens, B6 mice
# Text: Myopia was induced in 24-days old C57BL/6J (B6) mice by attaching -25 diopter (D) lens placed in a plastic 3D-printed frame over right eye. The contralateral eye served as control. Mice were raised with lenses for 3 weeks (FIG. 1A). After 3 weeks, the lenses were removed and refractive errors in the lens-treated eyes and contralateral control eyes were compared. Lens-treatment produced myopia in the lens-treated eyes (average refractive error = -14.6 ± 0.3 D) relative to the control eyes (average refractive error = +0.6 ± 0.6 D) (FIG. 1B); the interocular difference in refractive error (-15.2 ± 0.7 D) was highly significant (P < 0.0001). […] The diameter of lens-treated eyes was on average 65 ± 8 µm larger (P < 0.0001; FIG. 1C), and the vitreous chamber depth in the lens-treated eyes was 61 ± 4 µm longer (P < 0.0001; FIG. 1C), than that of the control fellow eyes.
# The experimental group of B6 mice was raised with -25 D lenses over right eye (as described in Example 1) on a diet supplemented with 5 mg/kg of levocabastine hydrochloride for 3 weeks, while the control group of B6 mice with -25 D lenses over right eye was raised on a regular non-medicated diet. The interocular difference in refractive error between lens-treated eyes and control eyes in the levocabastine-treated animals after 3 weeks of lens treatment was +0.55 ± 2.32 D versus -10.47 ± 3.02 D in the control group, P-value = 2.83 × 10^-10.
# (§1) The experimental group of B6 mice was raised with -25 D lenses over right eye on a diet supplemented with 1 mg/kg of fenoterol hydrobromide for 3 weeks, while the control group of B6 mice with -25 D lenses over right eye was raised on a regular non-medicated diet. The interocular difference in refractive error between lens-treated eyes and control eyes in the fenoterol-treated animals after 3 weeks of lens treatment was -0.8 ± 1.80 D versus -10.47 ± 3.02 D in the control group, P = 2.47 × 10^-08.
# as §1, with “trichostatin A” for “fenoterol hydrobromide”, “trichostatin-A-treated” for “fenoterol-treated”, “0.48” for “-0.8”, “1.46” for “1.80”, “4.43” for “2.47”, “10^-10.” for “10^-08.”
# (§2) The experimental group of B6 mice was raised with -25 D lenses over right eye on a diet supplemented with 0.3 mg/kg of fingolimod phosphate for 3 weeks, while the control group of B6 mice with -25 D lenses over right eye was raised on a regular non-medicated diet. The interocular difference in refractive error between lens-treated eyes and control eyes in the fingolimod-treated animals after 3 weeks of lens treatment was -0.02 ± 1.58 D versus -10.47 ± 3.02 D in the control group, P = 4.63 × 10^-9.
# The experimental group of B6 mice was raised with -25 D lenses over right eye on a diet supplemented with 20 mg/kg of berberine chloride for 3 weeks, while the control group of B6 mice with -25 D lenses over right eye was raised on a regular non-medicated diet. The interocular difference in refractive error between lens-treated eyes and control eyes in the berberine-treated animals after 3 weeks of lens treatment was -5.15 ± 1.22 D versus -10.47 ± 3.02 D in the control group, P = 1.31 × 10^-4.
# as §2, with “10” for “0.3”, “S-methyl-L-thiocitrulline hydrochloride” for “fingolimod phosphate”, “S-methyl-L-thiocitrulline-treated” for “fingolimod-treated”, “-0.28” for “-0.02”, “2.17” for “1.58”, “6.73” for “4.63”
# [2] = system: experimentally induced myopia; details: chickens; cited from earlier work
# myopia development [3] = details: chickens and guinea pigs; cited from earlier work
# experimental myopia = details: tree shrews, rhesus monkeys, and chickens; cited from earlier work
# myopia [4] = details: 300 mg/kg dose, guinea pigs; cited from earlier work
# myopia [5] = details: monkeys; effect strongly depended on the genetic background; cited from earlier work
# induced myopia = details: 30 mg/kg dose, rabbits; cited from earlier work
# [6] = system: progression of myopia in children; details: daily oral 400 mg (∼15 mg/kg), cited from earlier work
# sclera = details: rabbit, in vivo; cited from earlier work
# progression of myopia [7] = details: guinea pigs; cited from earlier work
# myopia [8] = details: guinea pigs; cited from earlier work
# progression of myopia [9] = details: 1-year period, cited from earlier work
# [10] = system: progression of myopia in children; details: cited from earlier work
# progression of myopia [11] = details: cited from earlier work
# [12] = system: development of ocular components and emmetropization; details: juvenile primates; cited from earlier work
# [13] = system: progression of myopia in children; details: cited from earlier work; remark: listed apart in the source
# mouse model of myopia = details: cited from earlier work
# myopia development [14] = details: chicken, mouse and non-human primates; cited from earlier work
compound,measurement,setting,value
[H]/N=C(\NCCC[C@H](N)C(=O)O)SC [S-methyl-L-thiocitrulline hydrochloride],interocular difference in refractive error between lens-treated eyes and control eyes,[1]; diet supplemented with 10 mg/kg,-0.28 ± 2.17 D
same,inhibition (suppression) of myopia,[1]; 10 mg/kg in diet,approximately 97%
Clc1cccc(Cl)c1N=C1NCCN1 [clonidine],inhibition of experimentally induced myopia,[2],inhibit experimentally induced myopia
NCCCP(=O)(O)CC1CCCCC1 [CGP46381],suppression of myopia development,myopia development [3],suppress myopia development
CC(=C\[C@@H](C)C(=O)c1ccc(N(C)C)cc1)/C=C(\C)C(=O)NO [trichostatin A],interocular difference in refractive error between lens-treated eyes and control eyes,[1]; diet supplemented with 1 mg/kg,0.48 ± 1.46 D
same,inhibition (suppression) of myopia,[1]; 1 mg/kg in diet,more than 100%
C[C@@H]1CN([C@H]2CC[C@](C#N)(c3ccc(F)cc3)CC2)CC[C@]1(C(=O)O)c1ccccc1 [levocabastine hydrochloride],interocular difference in refractive error between lens-treated eyes and control eyes,[1]; diet supplemented with 5 mg/kg,+0.55 ± 2.32 D
N=C(N)NC(=O)Cc1c(Cl)cccc1Cl [guanfacine],inhibition of experimentally induced myopia,[2],inhibit experimentally induced myopia
C[C@@H]1OC(=O)[C@H]2C[C@H]3CCCC[C@@H]3[C@@H](/C=C/[C@H]3CCC[C@H](C)N3C)[C@@H]12 [himbacine],inhibition of the development of experimental myopia,experimental myopia,inhibit the development of experimental myopia
"Cn1cnc2[nH]c(=O)[nH]c(=O)c21 [7-MX, 7-methylxanthine]",suppression of myopia,myopia [4],49%
same,suppression of myopia,myopia [5],can suppress myopia in primates
same,reduction of the extent of induced myopia,induced myopia,approximately 67%
same,effect on myopia progression,[6]; subjects with high rates of progression,no effect
same,suppression of myopia,[6]; subjects with slow progressing myopia,approximately 22%
same,changes in the sclera,sclera,thickening of the sclera and an increase in the diameter of the scleral collagen fibrils
COc1ccc2cc3[n+](cc2c1OC)CCc1cc2c(cc1-3)OCO2 [berberine chloride],interocular difference in refractive error between lens-treated eyes and control eyes,[1]; diet supplemented with 20 mg/kg,-5.15 ± 1.22 D
same,inhibition (suppression) of myopia,[1]; 20 mg/kg in diet,approximately 50%
"CCCCCCCCc1ccc(CCC(N)(CO)COP(=O)(O)O)cc1 (stereo not shown) [fingolimod phosphate, fingolimod (FTY720) phosphate]",interocular difference in refractive error between lens-treated eyes and control eyes,[1]; diet supplemented with 0.3 mg/kg,-0.02 ± 1.58 D
"CP(=O)(O)C1=CCNCC1 [TPMPA, (1,2,5,6-tetrahydropyridin-4yl) methylphosphinic acid]",suppression of myopia development,myopia development [3],suppress myopia development
CC(C)OC(=O)CCC/C=C\C[C@@H]1[C@@H](CC[C@@H](O)CCc2ccccc2)[C@H](O)C[C@@H]1O [latanoprost],reduction of progression of myopia,progression of myopia [7],reduce progression of myopia
CC(Cc1ccc(O)cc1)NCC(O)c1cc(O)cc(O)c1 (stereo not shown) [fenoterol hydrobromide],interocular difference in refractive error between lens-treated eyes and control eyes,[1]; diet supplemented with 1 mg/kg,-0.8 ± 1.80 D
Brc1c(NC2=NCCN2)ccc2nccnc12 [brimonidine],suppression of myopia,myopia [8],suppressed myopia
same,inhibition of experimentally induced myopia,[2],suppressed myopia
"CCCCP(=O)(O)C1CCC(N)C1 (stereo not shown) [3-ACPBPA, (3-aminocyclopentanyl) butylphosphinic acid]",suppression of myopia development,myopia development [3],suppress myopia development
CN1[C@@H]2CC[C@H]1C[C@@H](OC(=O)C(CO)c1ccccc1)C2 (stereo partly shown) [atropine],retardation of progression of myopia,progression of myopia [9]; 0.01% atropine,27%
same,retardation of progression of myopia,progression of myopia [9]; 0.025% atropine,43%
same,retardation of progression of myopia,progression of myopia [9]; 0.05% atropine,67%
same,long-term suppression effect,"[10]; 0.01% atropine, 5-year follow up study",approximately 30%
same,drop of the progression rate after cessation of treatment,"[10]; 0.01% atropine, after cessation of treatment",approximately 30%
same,retardation of the progression of myopia,"[10]; 0.01% atropine, children",59%
same,retardation of the progression of myopia,"[10]; 0.1% atropine, children",68%
same,suppression of the progression of myopia,"[10]; 0.5% atropine, children",75%
same,retardation of the progression of myopia,"progression of myopia [11]; 1% atropine eye drops, 2-year treatment period",approximately 76%
same,side effects,progression of myopia [11]; 1% atropine,"photophobia, reduced accommodation amplitude, and blurred vision"
same,long-term effects on development of ocular components and emmetropization,[12],long-term adverse effects
CN1CCN(CC(=O)N2c3ccccc3C(=O)Nc3cccnc32)CC1 [pirenzepine],inhibition of the development of experimental myopia,experimental myopia,inhibit the development of experimental myopia
same,suppression of the progression of myopia,[13]; children,40%
same,side effects,[13]; clinical trials eventually discontinued,serious side effects
CC(/C=C/C=C(\C)C(=O)O)=C\C=C\C=C(C)\C=C\C=C(/C)C(=O)O [crocetin],outcome of drug screen,mouse model of myopia,potential anti-myopia agent
CN1CCc2cccc3c2[C@H]1Cc1ccc(O)c(O)c1-3 [apomorphine],inhibition of myopia development,myopia development [14],inhibit myopia development

# — patent publication US20230138414A1, “METHODS AND COMPOSITIONS FOR PREVENTING AND TREATING MYOPIA” (The Trustees of Columbia University in the City of New York, priority 2020, published 2023)
